Values quoted from earlier work in patent publication US20030077758A1, “Myc repressor modulation to treat aging-related disorders” (priority 2000, published 2003).

Molecular target: AP-2 (Homo sapiens, UniProt P05549)
Conditions: in vitro; apparently by oxidizing cysteine residues in the AP-2 DNA binding domain

Sequence of AP-2 (P05549 whole entry, species assumed, the tested form may be a part): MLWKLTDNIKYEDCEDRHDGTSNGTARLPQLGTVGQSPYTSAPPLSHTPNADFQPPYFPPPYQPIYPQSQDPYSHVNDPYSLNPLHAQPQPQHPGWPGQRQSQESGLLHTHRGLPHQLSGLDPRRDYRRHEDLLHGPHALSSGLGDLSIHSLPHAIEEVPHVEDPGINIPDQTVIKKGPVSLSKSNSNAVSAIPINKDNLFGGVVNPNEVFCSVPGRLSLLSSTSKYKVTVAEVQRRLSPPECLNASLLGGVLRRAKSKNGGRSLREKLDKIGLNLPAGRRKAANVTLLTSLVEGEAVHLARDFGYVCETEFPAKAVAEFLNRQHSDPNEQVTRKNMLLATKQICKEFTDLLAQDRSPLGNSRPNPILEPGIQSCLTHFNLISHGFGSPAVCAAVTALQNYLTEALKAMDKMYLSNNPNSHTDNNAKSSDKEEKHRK

With CN(C)C(=O)/N=N/C(=O)N(C)C [diamide] as the compound, how does the “AP-2 DNA binding activity” value read?
The value was “inhibited”.

Which “AP-2 DNA binding activity” value does the source give for OO [hydrogen peroxide] here?
The value was “inhibited”.
